Measured values taken from US20240158446A1, “CYCLIC COMPOUND HAVING SELECTIVE INHIBITORY ACTION ON KRAS OVER HRAS AND NRAS” (CHUGAI SEIYAKU KABUSHIKI KAISHA, priority 2021, published 2024).
*1 amine or outer side, *2 acyl side, *3 side chain or, on linkers, in order; H or OH if unused. Where a SMILES comes first, the peptide text is derived from it. Bridges are numbered along the chain shown (N, C = ends). [ ]: non-standard residue; d: D form. The star is where a group is joined. hPhe(3-Cl-4-CF3) = N[C@@H](CCc1ccc(C(F)(F)F)c(Cl)c1)C(=O)O; NPrPhe(4-CF3) = CCCN[C@@H](Cc1ccc(C(F)(F)F)cc1)C(=O)O; NMeGly(cPent) = CN[C@H](C(=O)O)C1CCCC1; X44 = CC1(C)CN([*:1])[C@@H]1C(=O)[*:2]; Aze(3S-Me) = C[C@H]1CN[C@@H]1C(=O)O; NMeD = CN[C@@H](CC(=O)O)C(=O)O; NMeL = CN[C@@H](CC(C)C)C(=O)O; Morpholide = C1CN(*)CCO1; Ac5c = NC1(C(=O)O)CCCC1; Aze = O=C(O)[C@@H]1CCN1; Abu = CC[C@H](N)C(=O)O; Sar = CNCC(=O)O

Columns and labels:
[1] = biological target: GDP-bound HRAS wild-type protein (Homo sapiens, UniProt P01112); assay: Binding to HRAS by surface plasmon resonance (SPR), Single Cycle Kinetics; conditions: for HRAS/KRAS (ratio of KD value with respect to GDP-bound HRAS wild-type protein to KD value with respect to KRAS): SPR KD ratio HRAS/KRAS, class symbols
[2] = biological target: GDP-bound NRAS wild-type protein (Homo sapiens, UniProt P01111); assay: Binding to NRAS by surface plasmon resonance (SPR), Single Cycle Kinetics; conditions: for NRAS/KRAS (ratio of KD value with respect to GDP-bound NRAS wild-type protein to KD value with respect to KRAS): SPR KD ratio NRAS/KRAS, class symbols
[3] = test system: human lung cancer strain NCI-H441;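 also: cell proliferation inhibition after four days measured by CellTiter-Glo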
[4] = SPR, GDP-bound HRAS wild-type protein vs GDP-bound KRAS wild-type protein
[5] = SPR, GDP-bound NRAS wild-type protein vs GDP-bound KRAS wild-type protein

GDP-bound NRAS wild-type protein, sequence (P01111 whole entry): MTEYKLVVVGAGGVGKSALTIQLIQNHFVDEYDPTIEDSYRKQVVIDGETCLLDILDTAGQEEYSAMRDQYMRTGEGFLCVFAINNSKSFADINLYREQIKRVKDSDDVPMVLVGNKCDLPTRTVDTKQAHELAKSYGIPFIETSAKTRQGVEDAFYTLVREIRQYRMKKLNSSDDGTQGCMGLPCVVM
GDP-bound HRAS wild-type protein, sequence (P01112 whole entry): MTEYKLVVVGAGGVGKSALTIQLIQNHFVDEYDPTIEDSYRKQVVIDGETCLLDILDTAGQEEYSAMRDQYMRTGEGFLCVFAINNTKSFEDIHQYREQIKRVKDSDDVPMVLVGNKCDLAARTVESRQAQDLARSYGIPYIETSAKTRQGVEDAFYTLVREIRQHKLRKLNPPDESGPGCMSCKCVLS

IC50 [3] [nM]	SMILES	HRAS/KRAS (ratio of KD value with respect to HRAS to KD value with respect to KRAS) [1, 4]	NRAS/KRAS (ratio of KD value with respect to NRAS to KD value with respect to KRAS) [2, 5]	HRAS/KRAS (ratio of KD value with respect to GDP-bound HRAS wild-type protein to KD value with respect to KRAS) [1]	NRAS/KRAS (ratio of KD value with respect to GDP-bound NRAS wild-type protein to KD value with respect to KRAS) [2]	HRAS/KRAS (ratio of KD value for HRAS to KD value for KRAS) [1, 4]	NRAS/KRAS (ratio of KD value for NRAS to KD value for KRAS) [2, 5]
83.3	CC[C@H](C)[C@@H]1NC(=O)[C@H](CC(C)C)N(C)C(=O)C[C@@H](C(=O)N2CCOCC2)NC(=O)[C@H](C2CCCC2)N(C)C(=O)C2(CCCC2)NC(=O)[C@@H]2CCCN2C(=O)[C@H](CCc2cc(F)c(C(F)(F)F)c(F)c2)NC(=O)CN(C)C(=O)[C@H](Cc2ccc(C(F)(F)F)cc2)N2CCCC[C@@H](C2=O)N(C)C(=O)CN(C)C1=O [PP0541]	B (a compound having 3 or more and less than 10 is denoted as B)	B (a compound having 3 or more and less than 10 is denoted as B)				
29.1	CCO[C@@H]1C[C@H]2C(=O)NC3(CCC3)C(=O)N(C)[C@@H](C3CCCC3)C(=O)N(C)[C@H](C(=O)N(C)C)CC(=O)N(C)[C@@H](CC3CCCC3)C(=O)N[C@@H]([C@@H](C)CC)C(=O)N(C)CC(=O)N(C)[C@H]3C/C=C\CCN(C3=O)[C@@H](Cc3ccc(C)cc3)C(=O)N(C)CC(=O)N[C@@H](CCc3ccc(C(F)(F)F)c(C4CC4)c3)C(=O)N2C1 [PP2681]			A (a compound having 10 or more and less than 20 is denoted as A)	A (a compound having 10 or more and less than 20 is denoted as A)		
11.3	CCCN1C(=O)CN(C)C(=O)[C@@H]2[C@@H](C)CN2C(=O)[C@H]([C@@H](C)CC)NC(=O)[C@H](CC(C)C)N(C)C(=O)C[C@@H](C(=O)N2CCOCC2)N(C)C(=O)[C@H](C2CCCC2)N(C)C(=O)C2(CCCC2)NC(=O)[C@@H]2CCCN2C(=O)[C@H](CCc2ccc(C(F)(F)F)c(Cl)c2)NC(=O)CN(C)C(=O)[C@@H]1Cc1ccc(C(F)(F)F)cc1 [PP0258] ([NMeL]I[Aze(3S-Me)][Sar][NPrPhe(4-CF3)][Sar][hPhe(3-Cl-4-CF3)]P[Ac5c][NMeGly(cPent)][NMeD]-Morpholide; lactam N-11)					C (A compound having a KD ratio of 0.1 or more and less than 3 is denoted as C)	B (a compound having 3 or more and less than 10 is denoted as B)
24.8	CCO[C@@H]1C[C@H]2C(=O)NC3(CCC3)C(=O)N(C)[C@@H](C3CCCC3)C(=O)N(C)[C@H](C(=O)N(C)C)CC(=O)N(C)[C@@H](CC)C(=O)N[C@@H]([C@@H](C)CC)C(=O)N(C)CC(=O)N(C)[C@H]3CCCCCN(C3=O)[C@@H](Cc3ccc(F)c(F)c3)C(=O)N(C)CC(=O)N[C@@H](CCc3cc(F)c(C(F)(F)F)c(F)c3)C(=O)N2C1 [PP0907]					B (a compound having 3 or more and less than 10 is denoted as B)	B (a compound having 3 or more and less than 10 is denoted as B)
6.7	CCCN1C(=O)[C@@H]2CCN2C(=O)[C@H]2N(CC2(C)C)C(=O)[C@H]([C@@H](C)CC)NC(=O)[C@H](CC(C)C)N(C)C(=O)C[C@@H](C(=O)N2CCOCC2)N(C)C(=O)[C@H](C2CCCC2)N(C)C(=O)C2(CCCC2)NC(=O)[C@@H]2CCCN2C(=O)[C@H](CCc2ccc(C(F)(F)F)c(Cl)c2)NC(=O)CN(C)C(=O)[C@@H]1Cc1ccc(C(F)(F)F)cc1 [PP0277] ([NMeL]I[X44][Aze][NPrPhe(4-CF3)][Sar][hPhe(3-Cl-4-CF3)]P[Ac5c][NMeGly(cPent)][NMeD]-Morpholide; lactam N-11)					C (A compound having a KD ratio of 0.1 or more and less than 3 is denoted as C)	C (A compound having a KD ratio of 0.1 or more and less than 3 is denoted as C)
349	CCCN1C(=O)CN(C)C(=O)[C@@H]2CCN2C(=O)[C@H](CC)NC(=O)[C@H](CC(C)C)N(C)C(=O)C[C@@H](C(=O)N2CCOCC2)N(C)C(=O)[C@H](C2CCCC2)N(C)C(=O)C2(CCCC2)NC(=O)[C@@H]2CCCN2C(=O)[C@H](CCc2ccc(C(F)(F)F)c(Cl)c2)NC(=O)CN(C)C(=O)[C@@H]1Cc1ccc(C(F)(F)F)cc1 [PP0303] ([NMeL][Abu][Aze][Sar][NPrPhe(4-CF3)][Sar][hPhe(3-Cl-4-CF3)]P[Ac5c][NMeGly(cPent)][NMeD]-Morpholide; lactam N-11)					B (a compound having 3 or more and less than 10 is denoted as B)	B (a compound having 3 or more and less than 10 is denoted as B)
66.7	CCO[C@@H]1C[C@H]2C(=O)NC3(CCC3)C(=O)N(C)[C@@H](C3CCCC3)C(=O)N(C)[C@H](C(=O)N3CCOCC3)CC(=O)N(C)[C@@H](Cc3cccc(F)c3)C(=O)N[C@@H]([C@@H](C)CC)C(=O)N(C)CC(=O)N(C)[C@H]3CCCCCN(C3=O)[C@@H](Cc3ccc(C(F)(F)F)cc3)C(=O)N(C)CC(=O)N[C@@H](CCc3cc(F)c(C(F)(F)F)c(F)c3)C(=O)N2C1 [PP0856]					B (a compound having 3 or more and less than 10 is denoted as B)	B (a compound having 3 or more and less than 10 is denoted as B)
22.1	CCCOC[C@H]1C(=O)N[C@@H]([C@@H](C)CC)C(=O)N(C)CC(=O)N(C)[C@H]2C/C=C\CCN(C2=O)[C@@H](Cc2ccc(C)cc2)C(=O)N(C)CC(=O)N[C@@H](CCc2ccc(C(F)(F)F)c(Cl)c2)C(=O)N2C[C@H](CC)C[C@H]2C(=O)NC2(CC(C)(C)C2)C(=O)N(C)[C@@H](C2CCCC2)C(=O)N(C)[C@H](C(=O)N(C)C)CC(=O)N1C [PP2235]					A (a compound having 10 or more and less than 20 is denoted as A)	A (a compound having 10 or more and less than 20 is denoted as A)
100	CC[C@H](C)[C@@H]1NC(=O)[C@H](Cc2cccc(Cl)c2)N(C)C(=O)C[C@@H](C(=O)N2CCOCC2)N(C)C(=O)[C@H](C2CCCC2)N(C)C(=O)C2(CCCC2)NC(=O)[C@@H]2CCCN2C(=O)[C@H](CCc2ccc(C(F)(F)F)c(Cl)c2)NC(=O)CN(C)C(=O)[C@H](Cc2ccc(F)cc2)N2CCCCC[C@@H](C2=O)N(C)C(=O)CN(C)C1=O [PP0963]					B (a compound having 3 or more and less than 10 is denoted as B)	B (a compound having 3 or more and less than 10 is denoted as B)
13.6	CCC[C@H]1C(=O)N[C@@H]([C@@H](C)CC)C(=O)N(C)CC(=O)N(C)[C@H]2C/C=C\CCN(C2=O)[C@@H](Cc2ccc(C)cc2)C(=O)N(C)CC(=O)N[C@@H](CCc2cc(F)c(C(F)(F)F)c(F)c2)C(=O)N2C[C@H](OCC)C[C@H]2C(=O)NC2(CC(C)(C)C2)C(=O)N(C)[C@@H](C(CC)CC)C(=O)N(C)[C@H](C(=O)N(C)C)CC(=O)N1C [PP2064]					A (a compound having 10 or more and less than 20 is denoted as A)	A (a compound having 10 or more and less than 20 is denoted as A)
63.4	CCC[C@H]1C(=O)N[C@@H]([C@@H](C)CC)C(=O)N(C)CC(=O)N(C)[C@H]2C/C=C\CCN(C2=O)[C@@H](Cc2ccc(C)cc2)C(=O)N(C)CC(=O)N[C@@H](CCc2ccc(C(F)(F)F)c(OC)c2)C(=O)N2C[C@H](OCC)C[C@H]2C(=O)NC2(CC(C)(C)C2)C(=O)N(C)[C@@H](CC(F)(F)F)C(=O)N(C)[C@H](C(=O)N(C)C)CC(=O)N1C [PP3007]					A (a compound having 10 or more and less than 20 is denoted as A)	A (a compound having 10 or more and less than 20 is denoted as A)
1040	CCO[C@@H]1C[C@H]2C(=O)NC(C)(C)C(=O)N(C)[C@@H](C3CCCC3)C(=O)N(CC)[C@H](C(=O)N3CCOCC3)CC(=O)N(C)[C@@H](CC(C)C)C(=O)N[C@@H]([C@@H](C)CC)C(=O)N(C)CC(=O)N(C)[C@H]3CCCCCN(C3=O)[C@@H](Cc3ccc(C(F)(F)F)cc3)C(=O)N(C)CC(=O)N[C@@H](CCc3cc(F)c(C(F)(F)F)c(F)c3)C(=O)N2C1 [PP0958]					B (a compound having 3 or more and less than 10 is denoted as B)	B (a compound having 3 or more and less than 10 is denoted as B)
33.9	CCC[C@H]1C(=O)N[C@H]([C@@H](C)CC)C(=O)N(C)CC(=O)N(C)[C@H]2C/C=C\CCN(C2=O)[C@@H](Cc2ccc(C)cc2)C(=O)N(C)CC(=O)N[C@@H](CCc2cc(F)c(C(F)F)c(F)c2)C(=O)N2C[C@H](OCC)C[C@H]2C(=O)NC2(CC(C)(C)C2)C(=O)N(C)[C@@H](C(CC)CC)C(=O)N(C)[C@H](C(=O)N(C)C)CC(=O)N1C (stereo in doubt) [PP2783]			A (a compound having 10 or more and less than 20 is denoted as A)	A (a compound having 10 or more and less than 20 is denoted as A)		
7.9	CCCC[C@H]1C(=O)N[C@@H]([C@@H](C)CC)C(=O)N(C)CC(=O)N(C)[C@H]2C/C=C\CCN(C2=O)[C@@H](Cc2ccc(C)cc2)C(=O)N(C)CC(=O)N[C@@H](CCc2cc(F)c(C(F)(F)F)c(F)c2)C(=O)N2C[C@H](OCC)C[C@H]2C(=O)NC2(CC(C)(C)C2)C(=O)N(C)[C@@H](C2CCCC2)C(=O)N(C)[C@H](C(=O)N(C)C)CC(=O)N1C [PP2800]			A (a compound having 10 or more and less than 20 is denoted as A)	A (a compound having 10 or more and less than 20 is denoted as A)		
